This is an account of results in patent publication US20230393140A1, “BINDING ASSAYS INVOLVING A PLURALITY OF SYNTHETIC COMPOUNDS, TARGETS, AND COUNTER TARGETS” (SRI International, priority 2020, published 2023).

The target of one series is T1, K-Ras (Homo sapiens, UniProt P01116, G12V).
T1 construct: purchased Cytoskeleton Inc. CS-RS04
Description: MST binding affinity of resynthesized NNP hits to K-Ras. The conditions noted are these: for pKd: read-out: KD of K-Ras hits by MST. In outline: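 K-Ras G12V was GTP-loaded (EDTA exchange, 750 μM GTP, 2 h at 30° C, then MgCl2) and labeled with maleimide-647 dye. MST was run at room temperature in 20 mM HEPES pH 7.4, 150 mM NaCl, 10 mM MgCl2, 0.05% Tween-20, 1 mM DTT. Incubations lasted 15, 30 and 45 min; triplicate data fitted for affinity.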

The target in the next series is T2, K-Ras-Raf interaction (Homo sapiens, UniProt P01116, G12V).
T2 construct: purchased Cytoskeleton Inc. (K-Ras); Jena Bioscience (Raf-RBD) CS-RS04; PR-305
Put plainly: K-Ras/Raf inhibition assay (MST competition binding). To be noted: NNP at 1 μM pre-incubated with K-Ras 15 minutes at room temperature, then Raf titration. The procedure: This was tested on an MST competition binding assay (see FIG. 11A).
Loading was performed according to the following protocol: The 200 μM stock solution of the target protein was diluted to 10 μM in 20 mM HEPES pH 8.0, 150 mM NaCl, 10 mM MgCl2, 1 mM TCEP, 0.05% Tween-20 (total volume 110 μL). 10 μL were set aside for later labeling quality control. EDTA pH 8.0 (stock concentration 10 mM) was added to the protein solution to a final concentration of 80 μM. GTP (stock concentration 50 mM) was added to the protein solution to a final concentration of 750 μM. The solution was incubated at 30° C. for 2 hours (PCR tube) and then placed on ice for 2 minutes. MgCl2 was added to the protein solution to a final concentration of 100 mM. The resulting protein solution was buffer exchanged into the buffer required in the labeling kit for labeling. […] All the other target molecules (TNFα, IL-6, IL-6R and ASGPR) were used as received without any additional treatment.
Loading of K-Ras with the GTP was performed according to the protocol detailed above (Activation of K-Ras by GTP loading). After the GTP loading the resulting protein solution was buffer exchanged into 100 mM HEPES pH 6.5, 5 mM MgCl2, 50 mM NaCl, 1 mM TCEP.

Another series deals with T3, cRaf/K-Ras (G12V) PPI (Homo sapiens, UniProt P01116, G12V).
T3 construct: b-Kras G12V (GppNHp) (aa 2-169); biotin (b-
Description: K-Ras-cRaf HTRF-based PPI profiling.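 As to blank corrected HTRF: background is the signal of wells with all components except cRaf.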 The series is classed as biochemical. To be noted: for HillSlope: curve fit of % binding, K-Ras G12V 30 nM, GST-cRaf 10 nM; for blank corrected HTRF: raw data, compounds without fluorescein. In outline:
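K-Ras(G12V) pre-incubated 30 min at room temperature with compound in 20 mM HEPES pH 7.4, 150 mM NaCl, 5 mM MgCl2, 1 mM DTT, 0.005% NP40, 1% DMSO, then cRaf added. HTRF read via anti-GST-Tb cryptate/streptavidin-XL665. % binding is relative to DMSO controls; curves fitted only if activity at top concentration fell below 65%.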
Background: Time-resolved FRET reads energy transfer from a long-lived donor to a nearby acceptor.

The next series relates to biotinylated GST. Put plainly: Interference check with biotinylated GST and detection mix. An excerpt:
Table 20 below provides an interference check on the synthetic compounds using biotinylated GST, which was used with the detection mix to check for compound effect on fluorescence.

Series [1] is classed as in vitro ADME. The conditions noted are these: 17 h. The procedure:
For human plasma stability, lyophilized human plasma was reconstituted in sterile water for injection, aliquoted into 200 uL aliquots and stored frozen at −80 degrees C. prior to the stability studies. For the stability studies three aliquots per NNP were thawed at room temperature. An additional set of three aliquots for a positive control peptide (Angiotensin I) were also thawed. The incubations for the plasma stability were initiated by mixing 2 uL of a 2 mM stock solution of NNP IL6R-87-8 or positive control in DMSO with the 200 uL thawed plasma aliquot. After briefly vortex-mixing, 50 uL zero-time-point samples were removed, mixed with 50 uL of water and 400 uL of acetonitrile and frozen on dry ice until all time point samples had been collected. The samples were incubated at 37 degrees C. with samples removed and water/acetonitrile added at 1 hour, 3 hours, and 17 hours. Proteins were precipitated by centrifuging the samples at 17,000 G, 4 degrees C. for 1 hour. The supernatants were removed and concentrated in a centrifugal vacuum concentrator (GeneVac Genie II) at 45 degrees C. until the volume had been reduced to around 60 uL. […]

Where [2] appears, read: K-Ras, compound with fluorescein on N-term, read-out: KD[nM] in MST (with fluorescein on N-term).
Setting [3] is: read-out: KD (nM) [95% conf. int], MST, NNP1 library hit, target K-Ras, one-site binding model.

pKd: −log10 of the molar value. Read-outs that look alike come from different tables or passages of the source. Marks after values point to notes of the source that are not given here. Numbered stars: 1 amine (or outer) side, 2 acyl side, 3 side chain; on linkers, the order of the positions; unused ones are H or OH. Square brackets hold non-standard residues; d marks the D form. Ends that are not written are not given here. Peptide text beside a SMILES is read from it. * marks the point of attachment. 5FAM = O=C1OC2(c3ccc(O)cc3Oc3cc(O)ccc32)c2ccc(C(=O)*)cc21; NHCH2C6H4(4-CH2CONH2) = NC(=O)Cc1ccc(CN*)cc1; X1 = O=C(Cc1ccc(CN[*:1])cc1)[*:2]

The term Kd denotes the equilibrium constant for the complex coming apart. In general, pKd refers to −log10 of the Kd, conventionally taken in molar units. For the compound `CC(C)C[C@@H](NC(=O)[C@@H](Cc1ccc(O)cc1)NC(=O)[C@H]1CCCN1C(=O)[C@@H](CO)NC(=O)Cc1ccc(CNC(=O)CNC(=O)[C@@H](Cc2c[nH]c3ccccc23)NC(=O)[C@@H](CCCNC(=N)N)NC(=O)CNC(=O)[C@H]2CCCN2C(=O)Cc2ccc(CNC(=O)[C@H](C)NC(=O)[C@@H](CCCNC(=N)N)NC(=O)[C@H]3CCCN3C(=O)[C@H](NC(=O)[C@@H](Cc3ccc(O)cc3)NC(=O)Cc3ccc(CNC(=O)[C@H](Cc4ccccc4)NC(=O)[C@@H](CO)NC(=O)[C@@H](CCCNC(=N)N)NC(=O)[C@H]4CCCN4C(=O)CNC(=O)Cc4ccc(CNC(=O)[C@H](C)NC(=O)[C@@H](CCCNC(=N)N)NC(=O)[C@H]5CCCN5C(=O)[C@H](NC(=O)CNC(=O)Cc5ccc(CNC(=O)[C@@H](NC(=O)[C@@H](Cc6ccc(O)cc6)NC(=O)[C@@H](Cc6c[nH]cn6)NC(=O)[C@H]6CCCN6C(=O)[C@@H](Cc6c[nH]c7ccccc67)NC(=O)c6ccc7c(c6)C(=O)OC76c7ccc(O)cc7Oc7cc(O)ccc76)C(C)C)cc5)C(C)C)cc4)cc3)[C@H](C)O)cc2)cc1)C(=O)N[C@@H](C)C(=O)NCc1ccc(CC(N)=O)cc1` [KRAS-1-8] (5FAM-[dW][dP][dH][dY]V[X1]G[dV][dP][dR]A[X1]G[dP][dR][dS]F[X1][dY][dT][dP][dR]A[X1][dP]G[dR][dW]G[X1][dS][dP][dY][dL]A-{NHCH2C6H4(4-CH2CONH2)}), the Kd on K-Ras (setting [2]) and at K-Ras (setting [3]) was 44 nM each time. In addition, the pKd at K-Ras was 7.36. On K-Ras-Raf interaction, the “Inhibition of K-Ras-Raf PPI” value is given as “complete inhibition”. For the same compound, at cRaf/K-Ras (G12V) PPI, the HillSlope was −0.6222. Further, the “blank corrected HTRF” value at cRaf/K-Ras (G12V) PPI (conc. 1.00E−05) turned out to be 7296; on cRaf/K-Ras (G12V) PPI (conc. 1.11E−06) it was 10835; at cRaf/K-Ras (G12V) PPI (conc. 1.37E−08) it was 15117; at cRaf/K-Ras (G12V) PPI (conc. 3.33E−06), 9028; at cRaf/K-Ras (G12V) PPI (conc. 3.70E−07) it was 12171; on cRaf/K-Ras (G12V) PPI (conc. 4.12E−08), 15230. For the same compound, the “blank corrected HTRF” value on cRaf/K-Ras (G12V) PPI (conc. 4.57E−09) is 14396; at cRaf/K-Ras (G12V) PPI (conc. 5.08E−10), 13397. In addition, the “% signal compared to DMSO” value in the series on biotinylated GST (assay conc. 0.000508053 μM) amounted to 99.94%; with biotinylated GST (assay conc. 0.001524158 μM), 102.4%; with biotinylated GST (assay conc. 0.004572474 μM) it was 103%; in the series with biotinylated GST (assay conc. 0.013717421 μM), 98.33%; with biotinylated GST (assay conc. 0.041152263 μM), 87.69%; in the series with biotinylated GST (assay conc. 0.12345679 μM), 97.53%. The “% signal compared to DMSO” value with biotinylated GST (assay conc. 0.37037037 μM) is recorded as 93.95%; in the series on biotinylated GST (assay conc. 1.111111111 μM), 81.88%; in the series on biotinylated GST (assay conc. 3.333333333 μM), 68.53%; with biotinylated GST (assay conc. 10 μM), 56.45* %.

For `CC(C)C[C@H](NC(=O)[C@@H](C)NC(=O)[C@@H](CCC(=O)O)NC(=O)[C@H](NC(=O)[C@@H](CCCCN)NC(=O)Cc1ccc(CNC(=O)[C@H](C)NC(=O)[C@@H](CCCNC(=N)N)NC(=O)[C@H]2CCCN2C(=O)[C@H](NC(=O)CNC(=O)Cc2ccc(CNC(=O)[C@H](Cc3ccccc3)NC(=O)[C@@H](CO)NC(=O)[C@@H](CCC(=O)O)NC(=O)[C@H]3CCCN3C(=O)[C@@H](CC(C)C)NC(=O)c3ccc4c(c3)C(=O)OC43c4ccc(O)cc4Oc4cc(O)ccc43)cc2)C(C)C)cc1)[C@H](C)O)C(=O)NCc1ccc(CC(=O)N[C@H](Cc2ccc(O)cc2)C(=O)N[C@@H](C(=O)N2CCC[C@@H]2C(=O)N[C@H](CCCNC(=N)N)C(=O)N[C@@H](C)C(=O)NCc2ccc(CC(=O)N3CCC[C@@H]3C(=O)NCC(=O)N[C@H](CCCNC(=N)N)C(=O)N[C@H](Cc3c[nH]c4ccccc34)C(=O)NCC(=O)NCc3ccc(CC(=O)NCC(=O)N[C@H](Cc4c[nH]c5ccccc45)C(=O)N[C@H](Cc4c[nH]cn4)C(=O)N[C@H](CCCNC(=N)N)C(=O)N[C@@H](C)C(=O)NCc4ccc(CC(N)=O)cc4)cc3)cc2)[C@H](C)O)cc1` [KRAS-1-13] (5FAM-[dL][dP][dE][dS]F[X1]G[dV][dP][dR]A[X1][dK][dT][dE][dA]L[X1][dY][dT][dP][dR]A[X1][dP]G[dR][dW]G[X1]G[dW][dH][dR]A-{NHCH2C6H4(4-CH2CONH2)}), the Kd on K-Ras (setting [2]) and on K-Ras (setting [3]) was 30 nM in each case. For the same compound, the pKd at K-Ras was 7.52. The “Inhibition of K-Ras-Raf PPI” value on K-Ras-Raf interaction was “partial inhibition”. Moreover, on cRaf/K-Ras (G12V) PPI, the HillSlope was −0.821. The “blank corrected HTRF” value was found to be 3798 at cRaf/K-Ras (G12V) PPI (conc. 1.00E−05); 8379 on cRaf/K-Ras (G12V) PPI (conc. 1.11E−06); 13665 at cRaf/K-Ras (G12V) PPI (conc. 1.52E−09); 3957 on cRaf/K-Ras (G12V) PPI (conc. 3.33E−06); 9542 at cRaf/K-Ras (G12V) PPI (conc. 3.70E−07); 14025 on cRaf/K-Ras (G12V) PPI (conc. 4.12E−08). For the same compound, the “blank corrected HTRF” value was 13413 at cRaf/K-Ras (G12V) PPI (conc. 4.57E−09) and 5044 on cRaf/K-Ras (G12V) PPI (conc. 5.08E−10). Further, the “% signal compared to DMSO” value in the series on biotinylated GST (assay conc. 0.000508053 μM) is recorded as 101.8%; with biotinylated GST (assay conc. 0.001524158 μM), 103.1%; in the series with biotinylated GST (assay conc. 0.004572474 μM) it was 102.8%; in the series on biotinylated GST (assay conc. 0.013717421 μM), 101.9%; with biotinylated GST (assay conc. 0.041152263 μM) it was 102.1%; in the series on biotinylated GST (assay conc. 0.12345679 μM), 100.3%. Besides, the “% signal compared to DMSO” value with biotinylated GST (assay conc. 0.37037037 μM) is reported as 100.4%; in the series with biotinylated GST (assay conc. 1.111111111 μM), 94.53%; in the series with biotinylated GST (assay conc. 3.333333333 μM), 80.42%; with biotinylated GST (assay conc. 10 μM) it was 62.38* %.

For “DRVYIHPFHL [Angiotensin I, reference compound]”, in series [1], the “Stability in human plasma” value is reported as “completely degraded within four hours”.
